Experimental data as given in PubChem BioAssay AID720726 (Broad Institute, 2013).
The source made the active and inactive calls.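 The calls were made as follows: active = fitted dose curve rising to 40 percent activity within the top usable dose; inconclusive = flat curve between 30 and 70 percent, or poor fit; inactive = the rest, including signal moving the wrong way.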

Legend:
[1] = activators raising endogenous miR-122 levels, dose response, orthogonal assay, cell-based, Huh7, qRT-PCR, dry powder (AID 720726); conditions: Huh7 miR-122 levels, qRT-PCR, 48 h; at 35 µM (top of the series)
[2] = system: Huh7 miR-122 levels, qRT-PCR, 48 h; experiment: as above

Row | SMILES | miR-122 fold change [1] | AC40 [2] [µM]
1 | OCc1ccc(-c2nn(Cc3ccccc3)c3ccccc23)o1 | 0.428 fold change (inactive) | –
2 | CO[C@@H]1CN(C)C(=O)c2cc(NC(=O)c3ccc4c(c3)OCO4)ccc2OC[C@H](C)NC[C@@H]1C | 1.02 fold change (inactive) | –
3 | Cc1cccc(NC(=O)Nc2ccc3c(c2)C(=O)N(C)[C@@H]2CC[C@@H](CC(=O)NCc4ccccc4Cl)O[C@H]2CO3)c1 | 1.25 fold change (inactive) | –
4 | COc1ccc(-c2cnc3c(c2)C(=O)N([C@@H](C)CO)C[C@H](C)[C@H](CN(C)S(=O)(=O)c2ccc(OC)cc2)O3)cc1 | 1.26 fold change (inactive) | –
5 | COCC(=O)N(C)C[C@H]1Oc2cc(-c3ccc(C#N)cc3)ccc2S(=O)(=O)N([C@H](C)CO)C[C@H]1C | 0.895 fold change (inactive) | –
6 | Cn1c(=O)c(=O)n(C)c2cc(S(=O)(=O)N3CCOCC3)ccc21 | 1.28 fold change (inactive) | –
7 | Cc1cc(C(C)(C)C)cc(S(=O)(=O)N2CCOCC2)c1C | 0.977 fold change (inactive) | –
8 | O=C(NCCC1=CCCCC1)c1ccc2c(c1)sc1nc(-c3ccccc3)cn12 | 0.828 fold change (inactive) | –
9 | CCn1cc(C(=O)O)c(=O)c2cc(F)c(N3CCNCC3)nc21 | 0.972 fold change (inactive) | –
10 | CN1C(=O)c2cc(NC(=O)c3cccc(F)c3)ccc2OC[C@H]2O[C@@H](CC(=O)O)CC[C@H]21 | 1.38 fold change (inactive) | –
11 | C[C@H]1CN([C@@H](C)CO)S(=O)(=O)c2ccc(C#Cc3ccncc3)cc2O[C@H]1CN(C)C(=O)C1CCOCC1 | 0.373 fold change (inactive) | –
12 | COCC(=O)N(C)C[C@H]1Oc2cc(C#Cc3cccnc3)ccc2S(=O)(=O)N([C@H](C)CO)C[C@H]1C | – | 16.9
13 | C[C@@H]1CN([C@@H](C)CO)S(=O)(=O)c2ccc(C#Cc3ccncc3)cc2O[C@H]1CN(C)C(=O)C1CCOCC1 | 0.639 fold change (inactive) | –
14 | C[C@@H]1CN([C@@H](C)CO)S(=O)(=O)c2ccc(C#Cc3ccncc3)cc2O[C@@H]1CN(C)C(=O)C1CCOCC1 | 0.563 fold change (inactive) | –
15 | CN(C)CCN1C(=O)c2cccc3cc(N)cc(c23)C1=O | 0.364 fold change (inactive) | –
16 | CN1C(=O)c2cc(NC(=O)c3cccc(F)c3)ccc2OC[C@H]2O[C@@H](CC(=O)O)CC[C@@H]21 | 1.24 fold change (inactive) | –

Row | SMILES | miR-122 fold change [1] | AC40 [2] [µM]
17 | CN1C(=O)c2cc(NC(=O)c3cccc(F)c3)ccc2OC[C@@H]2O[C@@H](CC(=O)O)CC[C@@H]21 | 0.94 fold change (inactive) | –
18 | C[C@H]1CN([C@@H](C)CO)S(=O)(=O)c2ccc(C#Cc3ccncc3)cc2O[C@@H]1CN(C)C(=O)C1CCOCC1 | 0.399 fold change (inactive) | –
19 | COCC(=O)N(C)C[C@H]1Oc2cc(-c3ccc(C#N)cc3)ccc2S(=O)(=O)N([C@@H](C)CO)C[C@H]1C | 1.17 fold change (inactive) | –
20 | C[C@H](CO)N1C[C@H](C)[C@@H](CN(C)C(=O)C2CCOCC2)Oc2cc(C#Cc3ccncc3)ccc2S1(=O)=O | 0.407 fold change (inactive) | –
21 | CO[C@@H]1CN(C)C(=O)c2cc(NS(=O)(=O)c3ccc(Oc4ccccc4)cc3)ccc2OC[C@H](C)NC[C@@H]1C | 0.882 fold change (inactive) | –
22 | Cc1cccc(NC(=O)Nc2ccc3c(c2)C(=O)N(C)[C@@H]2CC[C@H](CC(=O)NCc4ccccc4Cl)O[C@H]2CO3)c1 | – | 8.38
23 | COCC(=O)N(C)C[C@H]1Oc2cc(-c3ccccc3F)ccc2S(=O)(=O)N([C@@H](C)CO)C[C@H]1C | 0.823 fold change (inactive) | –
24 | C[C@H]1CN([C@@H](C)CO)C(=O)c2cc(-c3ccc(C#N)cc3)cnc2O[C@H]1CN(C)Cc1cncnc1 | 0.987 fold change (inactive) | –
25 | C[C@H]1CN([C@@H](C)CO)C(=O)c2cc(-c3ccc(C#N)cc3)cnc2O[C@H]1CN(C)C(=O)Nc1ccc(C(F)(F)F)cc1 | 0.749 fold change (inactive) | –
26 | COc1cccc(C(=O)Nc2ccc3c(c2)C(=O)N(C)C[C@@H](OC)[C@@H](C)CN[C@@H](C)CO3)c1 | 1.15 fold change (inactive) | –
27 | CN1C(=O)c2cc(NC(=O)c3cccc(F)c3)ccc2OC[C@@H]2O[C@H](CC(=O)O)CC[C@@H]21 | 0.92 fold change (inactive) | –
28 | COCC(=O)N(C)C[C@H]1Oc2cc(-c3ccccc3F)ccc2S(=O)(=O)N([C@H](C)CO)C[C@H]1C | – | 18.9
29 | C[C@@H]1CN([C@H](C)CO)S(=O)(=O)c2ccc(C#Cc3ccncc3)cc2O[C@@H]1CN(C)C(=O)C1CCOCC1 | 0.732 fold change (inactive) | –
30 | C[C@@H]1CN([C@H](C)CO)S(=O)(=O)c2ccc(/C=C/c3ccccc3)cc2O[C@@H]1CN(C)C(=O)c1cccnc1 | 1.11 fold change (inactive) | –
31 | O=C(c1ccc(CNc2c(NC3CCCCC3)c(=O)c2=O)cc1)N1CCc2ccccc21 | 0.521 fold change (inactive) | –
32 | CCCC#Cc1ccc2c(c1)O[C@H](CN(C)C(=O)c1ccncc1)[C@H](C)CN([C@@H](C)CO)S2(=O)=O | – | 3.54
